In PMC7178208 (International Journal of Molecular Sciences, 2020):
In brackets after ≈: the same amount, converted by molar mass. Entries after “also recorded” stand apart in the source; their conditions may differ. Square brackets hold non-standard residues; d marks the D form. Peptide text beside a SMILES is read from it. * marks the point of attachment. FITC = O=C1OC2(c3ccc(O)cc3Oc3cc(O)ccc32)c2ccc(NC(=S)*)cc21; Bip = N[C@@H](Cc1ccc(-c2ccccc2)cc1)C(=O)O; Dip = N[C@H](C(=O)O)C(c1ccccc1)c1ccccc1; Ahx = NCCCCCC(=O)O

Tests used:
[1] = test system: C. albicans; assay: Scanning electron microscopy, cell morphology; type: cell-based, Candida albicans; settings: 50 μM peptide, 10^7 CFU/mL, SD broth, 28 °C, 5 min
Protocol: Time-course morphological studies of C. albicans were performed by scanning electron microscopy (SEM). Overnight cultures of C. albicans were sub-cultured and grown in SD broth. Then, 10^7 CFU/mL of C. albicans was treated with 0.25 mM P-113 in SD broth at 28 °C. Samples were collected following 1, 2, 3, 4, 5, and 6 h of incubation. Another experiment was performed to observe the morphological changes caused over in a short time caused by Bip-P-113 and Dip-P-113. Briefly, 10^7 CFU/mL of C. albicans in SD broth was treated for 5 min at 28 °C with 50 μM P-113, Bip-P-113, and Dip-P-113. After harvest, cells were resuspended in fixation solution (2.5% glutaraldehyde in 20 mM phosphate buffer pH 7.4) and then placed on Thermanox substrate-coated cover slips at 4 °C for 12 h. The cover slips were carefully washed three times with 20 mM phosphate buffer (pH 7.4), followed by incubation in post-fixation solution (1% OsO4 in 20 mM phosphate buffer pH 7.4) at room temperature for an hour. After being washed three times with 20 mM phosphate buffer (pH 7.4), the cover slips were air-dried for an hour by dehydration with a graded series of ethanol. Samples were gold-coated and observed under an S-4700 field-emission (FE)-SEM (Hitachi, Ltd., Tokyo, Japan) at an acceleration voltage of 5 kV.

[2] = histidine residues replaced with non-natural amino acids; cited from earlier work
[3] = test system: Candida albicans; type: cell-based; settings: 1× MIC, 30 min, SD broth, 28 °C, 5 × 10^4 CFU/mL, normal salt conditions, triplicate
Protocol: Figure 7 Time killing activity of FITC-labeled P-113 peptide and its FITC-labeled derivatives against Candida albicans. Cells were treated with 1× MIC of (a) P-113 (black circle), FITC-labeled N-terminal truncated P-113 (black square), FITC-labeled C-terminal truncated P-113 (black triangle), and (b) treated with FITC-labeled Bip-P-113 (white square), and FITC-labeled Dip-P-113 (white triangle). Killed cells (%) = (cell number in peptide-free control − cell number in sample)/(cell number in peptide-free control) × 100. Error bars represent the standard errors of the mean.
C. albicans were cultivated onto Sabouraud dextrose agar plates overnight and sub-cultured twice before time killing assays. A total of 5 × 10^4 CFU/mL of C. albicans cells were treated with 1× MIC of FITC-conjugated P-113 peptides and their derivatives in SD broth for 10, 20, 30, 60, and 120 min at 28 °C. After that time, serial dilutions (1:10) of the incubation mixtures were added onto SD agar. The numbers of CFU were counted after 24 h of incubation at 28 °C. The percentage of killed cells was calculated by comparison with the number of cells in a control sample incubated without P-113 peptide. The assays were performed in triplicate.

[4] = test system: C. albicans; assay: Confocal laser microscopy, localization of FITC peptides; type: cell-based, Candida albicans; settings: 50 μM FITC-conjugated peptide, 10^7 CFU/mL, SD broth, 28 °C, 5 min
Protocol: Firstly, 10^7 CFU/mL of C. albicans was incubated with 0.25 mM FITC P-113 and 0.25 mM FITC alone (as a negative control) in SD broth at 28 °C for 1, 2, 3, 4, 5, and 6 h. Another experiment was performed to observe the short-term localization of Bip-P-113 and Dip-P-113 peptides. Briefly, log-phase C. albicans cultures were resuspended to a cell density of 10^7 CFU/mL in SD broth and treated for 5 min at 28 °C with 50 μM FITC-conjugated P-113, Bip-P-113, and Dip-P-113. After centrifugation, the cells were washed three times with 20 mM phosphate buffer (pH 7.4) to remove nonbinding peptides and fixed with 4% (w/v) paraformaldehyde in 20 mM phosphate buffer (pH 7.4) at room temperature for 20 min. Following fixation, the cells were centrifuged at 3500× g for 5 min, resuspended in phosphate buffer, and loaded onto a glass slide with a 1.4% solid agarose bed. The images were taken with a confocal laser scanning microscope (LSM 510 META, Carl Zeiss, Jena, Germany) equipped with a 40× C-Apochromat water-immersion objective lens (Carl Zeiss, Jena, Germany).

[5] = test system: C. albicans American Type Culture Collection (ATCC) 10,231; type: cell-based, Candida albicans; settings: American Type Culture Collection (ATCC) 10,231, 24 h
Protocol: C. albicans (ATCC 10231) from the American Type Culture Collection (Manassas, VA, USA) was cultured at 28 °C on SD agar plates.
To determine the minimum inhibitory concentration (MIC) values of the FITC conjugated-P-113 peptides and their derivatives, a broth microdilution assay was used. Overnight-grown cultures of C. albicans in SD broth were sub-cultured for several hours and subsequently diluted to a final concentration of 5 × 10^4 CFU/mL in Mueller Hinton (MH) broth and LYM broth. A total of 100 μL of diluted microbe was transferred into each well of a 96-well plate, into which a 1 μL dilution series of peptides in sterile water (ranging from 50 to 0.78 μg/mL) was previously added. After incubation for 24 h at 28 ℃, the MIC value of P-113 peptides was determined as the lowest concentration at which no change in optical density was observed. The experiment was conducted three times, and average values were reported.

[6] = test system: C. albicans; assay: Fluorescence microscopy, localization of FITC truncated peptides; type: cell-based, Candida albicans; settings: 50 μM FITC peptide, 10^7 CFU/mL, SD broth, 28 °C, 30 min
Protocol: Firstly, 10^7 CFU/mL of C. albicans cells were incubated with 50 µM FITC N-terminal truncated P-113, FITC C-terminal truncated P-113 peptides, and FITC alone for 30 min at 28 °C in SD broth. After incubation, the cells were centrifuged at 3500× g for 5 min and then washed three times with 20 mM phosphate buffer (pH 7.4) to remove unbound peptides. The resulting pellets were resuspended and immobilized on the glass slips with a 1.4% solid agarose bed. Fluorescence images were captured using an inverted fluorescence microscope (ECLIPSE E400, Nikon, Tokyo, Japan) with a camera (AxioCam ICc5, ZEISS, Jena, Germany).

[7] = test system: C. albicans; assay: Flow cytometry, fluorescence of cells incubated with FITC peptides; type: cell-based, Candida albicans; settings: 50 μM FITC peptide, 5 × 10^6 CFU/mL, SD broth, 28 °C, 30 min, n = 3
Protocol: Firstly, 5 × 10^6 CFU/mL of C. albicans cells were incubated with 50 µM FITC P-113, FITC N-terminal truncated P-113, and FITC C-terminal truncated P-113 peptides for 30 min at 28 °C in SD broth. The resuspended cell pellets described above were also used for flow cytometry experiments. Flow cytometric cell sorting was performed (10,000 events/sample) by using flow cytometry (BD Accuri™ C6 Plus Flow Cytomete, BD Biosciences, NJ, USA). The quantitative data were analyzed by Prism software.

[8] = 10^7 CFU/mL of C. albicans + 0.5 mM pepstatin A; settings: C. albicans (ATCC 10231), 301 K, up to 24 h
[9] = 10^7 CFU/mL of C. albicans in SD broth; settings: C. albicans (ATCC 10231), 301 K, up to 24 h

MIC, LYM Control [5]	MIC, MH Broth [5]	Molecule	Cell surface morphology (SEM), short exposure [1]	Degradation in serum [2]	Cellular localization of FITC peptide [4]	other results
		C[C@H](NC(=O)CCCCCNC(=S)Nc1ccc2c(c1)C(=O)OC21c2ccc(O)cc2Oc2cc(O)ccc21)C(=O)N[C@@H](CCCCN)C(=O)N[C@@H](CCCNC(=N)N)C(=O)N[C@@H](Cc1ccc(-c2ccccc2)cc1)C(=O)N[C@@H](Cc1ccc(-c2ccccc2)cc1)C(=O)NCC(=O)N[C@@H](Cc1ccc(O)cc1)C(=O)N[C@@H](CCCCN)C(=O)N[C@@H](CCCNC(=N)N)C(=O)N[C@@H](CCCCN)C(=O)N[C@@H](Cc1ccccc1)C(=O)N[C@@H](Cc1ccc(-c2ccccc2)cc1)C(N)=O [Bip-P-113] ({FITC-Ahx}-AKR[Bip][Bip]GYKRKF[Bip]-NH2; N-terminus assumed)	became rippled and showed deep pore formation	protects	accumulated on the surface of cells and did not translocate into the cytoplasm	Reduction in cell viability [3]: 99%
50 µg/mL (≈ 28.1 µM)	>50 µg/mL	C[C@H](NC(=O)CCCCCNC(=S)Nc1ccc2c(c1)C(=O)OC21c2ccc(O)cc2Oc2cc(O)ccc21)C(=O)N[C@@H](CCCCN)C(=O)N[C@@H](CCCNC(=N)N)C(=O)N[C@@H](Cc1c[nH]cn1)C(=O)N[C@@H](Cc1c[nH]cn1)C(=O)NCC(=O)N[C@@H](Cc1ccc(O)cc1)C(=O)N[C@@H](CCCCN)C(=O)N[C@@H](CCCNC(=N)N)C(=O)N[C@@H](CCCCN)C(N)=O [C-ter truncated P-113] ({FITC-Ahx}-AKRHHGYKRK-NH2; N-terminus assumed)				Green fluorescence in cells compared with N-terminal truncated P-113 [6]: less green fluorescence; Fluorescence intensity of cells compared with cells incubated with intact P-113 [7]: dramatic decrease in fluorescence intensity
		C[C@H](NC(=O)CCCCCNC(=S)Nc1ccc2c(c1)C(=O)OC21c2ccc(O)cc2Oc2cc(O)ccc21)C(=O)N[C@@H](CCCCN)C(=O)N[C@@H](CCCNC(=N)N)C(=O)N[C@H](C(=O)N[C@H](C(=O)NCC(=O)N[C@@H](Cc1ccc(O)cc1)C(=O)N[C@@H](CCCCN)C(=O)N[C@@H](CCCNC(=N)N)C(=O)N[C@@H](CCCCN)C(=O)N[C@@H](Cc1ccccc1)C(=O)N[C@H](C(N)=O)C(c1ccccc1)c1ccccc1)C(c1ccccc1)c1ccccc1)C(c1ccccc1)c1ccccc1 [Dip-P-113] ({FITC-Ahx}-AKR[Dip][Dip]GYKRKF[Dip]-NH2; N-terminus assumed)	became rippled and showed deep pore formation	protects	accumulated on the surface of cells and did not translocate into the cytoplasm	
25 µg/mL (≈ 13.4 µM)	>50 µg/mL	N=C(N)NCCC[C@H](NC(=O)CCCCCNC(=S)Nc1ccc2c(c1)C(=O)OC21c2ccc(O)cc2Oc2cc(O)ccc21)C(=O)N[C@@H](Cc1c[nH]cn1)C(=O)N[C@@H](Cc1c[nH]cn1)C(=O)NCC(=O)N[C@@H](Cc1ccc(O)cc1)C(=O)N[C@@H](CCCCN)C(=O)N[C@@H](CCCNC(=N)N)C(=O)N[C@@H](CCCCN)C(=O)N[C@@H](Cc1ccccc1)C(=O)N[C@@H](Cc1c[nH]cn1)C(N)=O [N-ter truncated P-113] ({FITC-Ahx}-RHHGYKRKFH-NH2; N-terminus assumed)				
		AKRHHGYKRKFH				not cleaved [8]: no noticeable changes in ^1H-^15N HSQC chemical shifts in the presence of pepstatin A (24 h); cleaved bond [9]: Lys10-Phe11, first_seen, 1 h; also recorded: Tyr7-Lys8, 2–3 h; also recorded: Lys8-Arg9
